Data reported in patent US20130331357A1, “COMBINATION THERAPY OF HSP90 INHIBITORY COMPOUNDS WITH PROTEASOME INHIBITORS” (SYNTA PHARMACEUTICALS CORP., priority 2011, published 2013).

Columns and labels:
[1] = system: H1703 cells; experiment: Cell Titer-Glo cell viability assay, H1703 NSCLC cells; type: cell-based, Human; conditions: for cells killed: viability 72 hr later
Procedure: Cells were maintained at 37° C., 5% CO2 atmosphere.
[…] […] Viability was assessed 72 hr later.
Combination Index (CI) was then determined using the median effect analysis software CalcuSyn 2.0 (CalcuSyn, Inc.). A Combination Index greater than 1, equal to 1 or less than 1 indicates antagonism, additivity and synergism, respectively.

[2] = system: H1838 cells; experiment: Cell viability assay, H1838 NSCLC cells; type: cell-based, Human; conditions: bortezomib day 1, compound 1 day 2; 72 hours after compound 1 exposure (FIG. 6)
Procedure: Human H1703, H1975, H1838 NSCLC cells, U266 multiple myeloma cells, HCT116 colon cancer cells and Detroit562 head and neck cancer cells were purchased from the American Type Culture Collection (Manassas, Va.). H1975, H1703, H1838 and U266 cells were grow in RPMI media, HCT116 cells were grown in McCoy's media and Detroit562 cells were grown in MEM. Fetal bovine serum (10%) was added to all media, along with 2 mM L-glutamine and antibiotics (100 IU/ml penicillin and 100 μg/ml streptomycin) purchased from Sigma Aldrich. Cells were maintained at 37° C., 5% CO2 atmosphere.
Cell viability was measured using the Cell Titer-Glo assay (Promega). In brief, cells were plated in 96-well plates in triplicate at optimal seeding density (determined empirically for each cell line) and incubated at 37° C., 5% CO2 atmosphere for 24 hr prior to the addition of drug or vehicle (0.3% DMSO) to the culture medium. At the end of the assay, Cell Titer-Glow was added to the wells per manufactures recommendation, shaken for two minutes and incubated for 10 minutes at room temperature. Luminescence (0.1 sec) was measured with a Victor II microplate reader (Perkin Elmer) and the resulting data were used to calculate cell viability, normalized to vehicle control.

[3] = Phase 1 clinical investigations, intravenous Compound 1; type: in vivo, human
Text: Compound 1 was advanced into phase 1 clinical investigations studying patients with refractory hematologic malignancies using two intravenous schedules of administration: weekly for 3 out of every 4 weeks and twice weekly without breaks dosing by one-hour infusion.

[4] = bortezomib day 1, compound 1 Day 2, 72 hours after compound 1 exposure (FIG. 4)
[5] = concurrent, one hour on both days 1 and 2, 72 hours after final drug exposure (FIG. 5)

Row | SMILES | cells killed ([1]; bortezomib alone 22 nM, 1 hr exposure Day 1 and Day 2) [%] | cell death by microscopy [1, 4] | cells killed ([1]; bortezomib on its own 15 nM, 8 hr pulse Day 1, washout) [%] | cell death by microscopy [1, 5] | cell death by microscopy [2] | cells killed ([1]; compound 1 alone 50 nM, 8 hr pulse, washout) [%] | cells killed ([1]; compound 1 alone 74 nM, 1 hr exposure Day 1 and Day 2) [%] | efficacy signals, hematologic malignancies ([3]; phase 1 AML and CML patients) | cardiac effects following the infusion ([3]; phase 1 patients) | efficacy signals, solid tumors ([3]; phase 1 patients) | patients with Grade 1-2 infusional reactions ([3]; phase 1 patients) [%] | severe hepatotoxicity ([3]; phase 1 patients, unlike geldanamycin-based HSP90 inhibitors) | dose limiting toxicities ([3]; phase 1 program, solid tumors and refractory hematologic malignancies, one-hour infusion)
1 | CC(C)C[C@H](NC(=O)[C@H](Cc1ccccc1)NC(=O)c1cnccn1)B(O)O [bortezomib, reference compound] | 15 | weak activity | 25 | weak activity | weak activity |  |  |  |  |  |  |  | 
2 | CC(C)c1cc(-c2nnc(O)n2-c2ccc3c(ccn3C)c2)c(O)cc1O [compound 1, 3-(2,4-dihydroxy-5-isopropyl-phenyl)-4-(1-methyl-indol-5-yl)-5-hydroxy-[1,2,4] triazole] |  | weak activity |  | weak activity | weak activity | 10 | 15 | declines in peripheral and bone marrow blasts | Moderate tachycardia and PR interval prolongation | partial responses in colorectal cancer and melanoma | 5 | has not been observed | reversible fatigue and diarrhea
